Some results are limits rather than exact numbers.

Btk, sequence (Q06187 whole entry): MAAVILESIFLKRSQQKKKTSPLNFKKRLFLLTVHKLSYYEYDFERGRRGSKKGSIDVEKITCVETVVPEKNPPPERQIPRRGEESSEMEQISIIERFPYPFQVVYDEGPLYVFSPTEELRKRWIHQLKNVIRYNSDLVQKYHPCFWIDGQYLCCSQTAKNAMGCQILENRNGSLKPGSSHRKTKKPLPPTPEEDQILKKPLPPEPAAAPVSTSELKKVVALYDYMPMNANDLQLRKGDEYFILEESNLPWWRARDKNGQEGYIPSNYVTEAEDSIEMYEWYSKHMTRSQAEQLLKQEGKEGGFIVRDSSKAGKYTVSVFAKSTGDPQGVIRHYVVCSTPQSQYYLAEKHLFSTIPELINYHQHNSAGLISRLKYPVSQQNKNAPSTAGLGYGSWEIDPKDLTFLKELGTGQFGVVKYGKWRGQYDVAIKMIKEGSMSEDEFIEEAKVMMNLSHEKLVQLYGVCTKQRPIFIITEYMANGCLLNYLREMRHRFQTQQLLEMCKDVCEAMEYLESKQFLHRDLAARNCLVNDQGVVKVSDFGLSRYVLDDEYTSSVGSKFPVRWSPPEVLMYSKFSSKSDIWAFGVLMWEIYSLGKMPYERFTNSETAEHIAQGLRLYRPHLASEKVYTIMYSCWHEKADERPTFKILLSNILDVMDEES

The target in the assay is Btk (Homo sapiens, UniProt Q06187). Description: Btk TR-FRET kinase inhibition assay. The assay is classed as biochemical. The note with it: pH 7.4, ATP at the Km for the kinase, 1 μM peptide substrate, [Btk]total=0.5 nM, read-out: Btk-TRFRET (Ki). How it is done:
Suitable in vitro assays for measuring kinase activity and the inhibition thereof by compounds are known (e.g., see Kuzmic et al. Anal. Biochem. 2000, 286, 45-50).
The following protocol represents an assay for determination of inhibition of kinases under physiological conditions (pH 7.4). Kinase activity was determined using a time-resolved fluorescence resonance energy transfer (TR-FRET) methodology. Measurements were performed in a reaction volume of 50 μL using 96-well assay plates. Kinase enzyme, inhibitor, ATP (at the Km for the kinase), and 1 μM peptide substrate (Biotin-AVLESEEELYSSARQ-NH2) were incubated in a reaction buffer composed of 20 mM Tris, 50 mM NaCl, MgCl2 (5-25 mM depending on the kinase), 1 mM DTT, 0.1 mM EDTA, 0.01% bovine serum albumin, 0.005% Tween-20, and 10% DMSO at pH 7.4 for one hour. The reaction was quenched by the addition of 1.2 equivalents of EDTA (relative to Mg^2+) in 25 μL of 1× Lance buffer (Perkin-Elmer). Streptavidin-APC (Perkin-Elmer) and Eu-labeled p-Tyr100 antibody (Perkin-Elmer) in 1× Lance buffer were added in a 25 μL volume to give final concentrations of 100 nM and 2.5 nM, respectively, and the mixture was allowed to incubate for one hour. The TR-FRET signal was measured on a multimode plate reader with an excitation wavelength of 330 nm and detection wavelengths of 615 nm and 665 nm. Activity was determined by the ratio of the fluorescence at 665 nm to that at 615 nm. For each compound, enzyme activity was measured at various concentrations of compound. Negative control reactions were performed in the absence of inhibitor in replicates of six, and two no-enzyme controls were used to determine baseline fluorescence levels. Inhibition constants were obtained using the program BatchKi (Kuzmic et al. Anal. Biochem. 2000, 286, 45-50). IC50s were obtained according to this equation: IC50={Ki(app)/(1+[ATP]/Km^ATP)}+[E]total/2; for all kinases, [ATP]=Km^ATP, [Btk]total=0.5 nM and [Lck]total=6 nM.
Regarding `Cc1cc(F)ccc1Nc1nc2ccc3c(C)c(/C=C/CNC(=O)C4CCP(C)(=O)CC4)[nH]c(=O)c3c2n1C` (mixture of isomers) [Compound 15, 2-(4-fluoro-2-methylphenylamino)-1,6-dimethyl-7-{3-[(1-oxo-1-methyl-1λ^5-phosphinan-4-yl)-carbonylamino]propenyl}-1,8-dihydro-imidazo[4,5-h]isoquinolin-9-one], the Ki was under 100 nM.
Under `Cc1cc(F)ccc1Nc1nc2ccc3c(C)c(/C=C/CN4CCP(C)(=O)CC4)[nH]c(=O)c3c2n1C` [Compound 1, 2-(4-fluoro-2-methylphenylamino)-1,6-dimethyl-7-[3-(4-methyl-4-oxo-4λ^5[1,4]azaphosphinan-1-yl)-propenyl]-1,8-dihydro-imidazo[4,5-h]isoquinolin-9-one] stands under 100 nM.
Next, `Cc1c(C=CCN2CCP(C)(=O)CC2)[nH]c(=O)c2c1ccc1nc(Nc3c(Cl)cccc3Cl)n(C)c12` [Compound 2, 2-(2,6-dichloro-phenylamino)-1,6-dimethyl-7-[3-(4-methyl-4-oxo-4λ^5[1,4]azaphosphinan-1-yl)-propenyl]-1,8-dihydro-imidazo[4,5-h]isoquinolin-9-one]: under 100 nM; `Cc1cc(F)ccc1Nc1nc2ccc3c(C)c(/C=C/CN4CCP(=O)(c5ccccc5)CC4)[nH]c(=O)c3c2n1C` [Compound 3, 2-(4-fluoro-2-methylphenylamino)-1,6-dimethyl-7-[3-(4-oxo-4-phenyl-4λ^5-[1,4]azaphosphinan-1-yl)-propenyl]-1,8-dihydro-imidazo[4,5-h]isoquinolin-9-one]: under 100 nM.
Under `Cc1ccc(F)cc1Nc1nc2ccc3c(C)c(C=CCN4CCP(=O)(c5ccccc5)CC4)[nH]c(=O)c3c2n1C` [Compound 4, 2-(3-fluoro-6-methylphenylamino)-1,6-dimethyl-7-[3-(4-oxo-4-phenyl-4λ^5-[1,4]azaphosphinan-1-yl)-propenyl]-1,8-dihydro-imidazo[4,5-h]isoquinolin-9-one] stands under 100 nM.
In the case of `Cc1c(/C=C/CN2CCP(=O)(c3ccccc3)CC2)[nH]c(=O)c2c1ccc1nc(Nc3c(Cl)cccc3Cl)n(C)c12` [Compound 5, 2-(2,6-dichlorophenylamino)-1,6-dimethyl-7-[3-(4-oxo-4-phenyl-4λ^5-[1,4]azaphosphinan-1-yl)-propenyl]-1,8-dihydro-imidazo[4,5-h]isoquinolin-9-one], the Ki was under 100 nM.
Under `Cc1cc(Cl)cc(Cl)c1Nc1nc2ccc3c(C)c(C=CCN4CCP(=O)(c5ccccc5)CC4)[nH]c(=O)c3c2n1C` [Compound 6, 2-(2,4-dichloro-6-methylphenylamino)-1,6-dimethyl-7-[3-(4-oxo-4-phenyl-4λ^5-[1,4]azaphosphinan-1-yl)-propenyl]-1,8-dihydro-imidazo[4,5-h]isoquinolin-9-one] stands under 100 nM; under `Cc1ccc(F)cc1Nc1nc2ccc3c(C)c(C=CC(=O)N4CCP(=O)(c5ccccc5)CC4)[nH]c(=O)c3c2n1C` [Compound 7, 2-(3-fluoro-6-methylphenylamino)-1,6-dimethyl-7-{2-[(4-oxo-4-phenyl-4λ^5-[1,4]azaphosphinan-1-yl)-carbonyl]ethenyl}-1,8-dihydro-imidazo[4,5-h]isoquinolin-9-one], 100 to 1000 nM.
On to `Cc1cc(Cl)cc(Cl)c1Nc1nc2ccc3c(C)c(CCCN4CCP(=O)(c5ccccc5)CC4)[nH]c(=O)c3c2n1C` [Compound 8, 2-(2,4-dichloro-6-methylphenylamino)-1,6-dimethyl-7-[3-(4-oxo-4-phenyl-4λ^5-[1,4]azaphosphinan-1-yl)-propyl]-1,8-dihydro-imidazo[4,5-h]isoquinolin-9-one], for which the Ki is 100 to 1000 nM.
Under `Cc1cc(F)ccc1Nc1nc2ccc3c(C)c(CCCN4CCP(=O)(c5ccccc5)CC4)[nH]c(=O)c3c2n1C` [Compound 9, 2-(4-fluoro-2-methylphenylamino)-1,6-dimethyl-7-[3-(4-oxo-4-phenyl-4λ^5-[1,4]azaphosphinan-1-yl)-propyl]-1,8-dihydro-imidazo[4,5-h]isoquinolin-9-one] stands 100 to 1000 nM.
Regarding `Cc1cc(F)ccc1Nc1nc2ccc3c(C)c(C=CCN4CCP(=O)(c5ccc(F)cc5)CC4)[nH]c(=O)c3c2n1C` [Compound 10, 2-(4-fluoro-2-methylphenylamino)-1,6-dimethyl-7-[3-(4-oxo-4-(4-fluorophenyl)-4λ^5-[1,4]azaphosphinan-1-yl)-propenyl]-1,8-dihydro-imidazo[4,5-h]isoquinolin-9-one], the Ki was under 100 nM.
For `COc1ccc(P2(=O)CCN(CC=Cc3[nH]c(=O)c4c(ccc5nc(Nc6cc(F)ccc6C)n(C)c54)c3C)CC2)cc1` [Compound 11, 2-(3-fluoro-6-methylphenylamino)-1,6-dimethyl-7-[3-(4-oxo-4-(4-methoxyphenyl)-4λ^5-[1,4]azaphosphinan-1-yl)-propenyl]-1,8-dihydro-imidazo[4,5-h]isoquinolin-9-one], the Ki was under 100 nM.
`Cc1cc(F)ccc1Nc1nc2ccc3c(C)c(/C=C/CN4CCP(=O)(Cc5ccc(F)cc5)CC4)[nH]c(=O)c3c2n1C` [Compound 12, 2-(4-fluoro-2-methylphenylamino)-1,6-dimethyl-7-{3-[4-(4-fluorophenylmethyl)-4-oxo-4λ^5-[1,4]azaphosphinan-1-yl]-propenyl}-1,8-dihydro-imidazo[4,5-h]isoquinolin-9-one]: the Ki is under 100 nM.
Under `Cc1cc(F)ccc1Nc1nc2ccc3c(C)c(/C=C/CN4CCP(=O)(CC5CC5)CC4)[nH]c(=O)c3c2n1C` [Compound 13, 2-(4-fluoro-2-methylphenylamino)-1,6-dimethyl-7-{3-[4-(cyclopropylmethyl)-4-oxo-4λ^5-[1,4]azaphosphinan-1-yl]-propenyl}-1,8-dihydro-imidazo[4,5-h]isoquinolin-9-one] stands under 100 nM; under `Cc1cc(F)ccc1Nc1nc2ccc3c(C)c(/C=C/CN4CCP(=O)(C5CC5)CC4)[nH]c(=O)c3c2n1C` [Compound 14, 2-(4-fluoro-2-methylphenylamino)-1,6-dimethyl-7-{3-[4-(cyclopropyl)-4-oxo-4λ^5-[1,4]azaphosphinan-1-yl]-propenyl}-1,8-dihydro-imidazo[4,5-h]isoquinolin-9-one], under 100 nM; under `Cc1cc(F)ccc1Nc1nc2ccc3c(C)c(C=CCNC(=O)C4CCP(=O)(c5ccccc5)CC4)[nH]c(=O)c3c2n1C` (stereo not drawn) [Compound 16, 2-(4-fluoro-2-methylphenylamino)-1,6-dimethyl-7-{3-[(1-oxo-1-trans-phenyl-1λ^5-phosphinan-4-yl)-carbonylamino]propenyl}-1,8-dihydro-imidazo[4,5-h]isoquinolin-9-one], under 100 nM.
For the molecule `Cc1cc(F)ccc1Nc1nc2ccc3c(C)c(/C=C/CNC(=O)[C@H]4CC[P@@](=O)(c5ccccc5)CC4)[nH]c(=O)c3c2n1C` [Compound 17, 2-(4-fluoro-2-methyl-phenylamino)-1,6-dimethyl-7-{3-[(1-oxo-1-cis-phenyl-1λ^5-phosphinan-4-yl)-carbonylamino]propenyl}-1,8-dihydro-imidazo[4,5-h]isoquinolin-9-one], the Ki is under 100 nM.
Under `Cc1c(C=CCN2CCN(c3ccccc3)CC2)[nH]c(=O)c2c1ccc1nc(Nc3c(Cl)cccc3Cl)n(C)c12` [Compound 18, 2-(2,6-dichlorophenylamino)-1,6-dimethyl-7-[3-(N-phenylpiperazin-1-yl)-propenyl]-1,8-dihydro-imidazo[4,5-h]isoquinolin-9-one] stands under 100 nM.
Under `Cc1cc(F)ccc1Nc1nc2ccc3c(C)c(C=CCN4CCN(c5ccccc5)CC4)[nH]c(=O)c3c2n1C` [Compound 19, 2-(4-fluoro-2-methylphenylamino)-1,6-dimethyl-7-[3-(N-phenylpiperazin-1-yl)-propenyl]-1,8-dihydro-imidazo[4,5-h]isoquinolin-9-one] stands under 100 nM.
On to `Cc1cc(F)ccc1Nc1nc2ccc3c(C)c(C=CCN4CCN(c5ccc(Cl)cc5)CC4)[nH]c(=O)c3c2n1C` [Compound 20, 2-(4-fluoro-2-methylphenylamino)-1,6-dimethyl-7-[3-(N-(4-chlorophenyl)-piperazin-1-yl)-propenyl]-1,8-dihydro-imidazo[4,5-h]isoquinolin-9-one], for which the Ki was under 100 nM.
Next, `CC(=O)N1CCN(CC=Cc2[nH]c(=O)c3c(ccc4nc(Nc5ccc(F)cc5C)n(C)c43)c2C)CC1` [Compound 21, 2-(4-fluoro-2-methylphenylamino)-1,6-dimethyl-7-[3-(N-methylcarbonylpiperazin-1-yl)-propenyl]-1,8-dihydro-imidazo[4,5-h]isoquinolin-9-one]: under 100 nM; `Cc1cc(F)ccc1Nc1nc2ccc3c(C)c(C=CCN4CCN(C(=O)c5ccccc5)CC4)[nH]c(=O)c3c2n1C` [Compound 22, 2-(4-fluoro-2-methylphenylamino)-1,6-dimethyl-7-[3-(N-phenylcarbonylpiperazin-1-yl)-propenyl]-1,8-dihydro-imidazo[4,5-h]isoquinolin-9-one]: under 100 nM.

Source of the values: patent publication US8067395B2, “Inhibitors of tyrosine kinases and uses thereof” (Pharmacyclics, Inc., priority 2006, dated 2011).
